{"source": "patent US10729766B2", "about": "(priority 2013, dated 2020)", "origin": "cited, not measured here", "key": {"[1]": {"details": "mice; single bolus low dose administration"}}, "data": [{"smiles": "O=P1(N(CCCl)CCCl)NCCCO1", "note": "(stereo not shown) [Cyclophosphamide, N,N-bis(2-chloroethyl)-1,3,2-oxazaphosphinan-2-amine 2-oxide]", "values": [{"measurement": "bioavailability, oral versus parenteral administration", "setting": "human, in vivo, po", "result": "little difference in bioavailability"}, {"measurement": "peak plasma levels of the parent", "setting": "varies between patients", "result": "3 to 11", "unit": "h"}, {"measurement": "time of effects returning to normal", "setting": "[1]", "result": "7 to 10", "unit": "days"}, {"measurement": "time to nadir of effects after administration", "setting": "[1]", "result": "≤ 4", "unit": "days"}]}]}
